Test results: patent publication US7138361B2, “Herbicidal heterocycles” (E. I. du Pont de Nemours and Company, priority 2000, dated 2006)

What was measured:
Format in all cases: in vivo
[1] = test system: smallflower flatsedge (Cyperus difformis); experiment: Test C flooded paddy test; conditions: for Flatsedge plant response rating: Flooded Paddy, scale 0 to 100, 0 no effect, 100 complete control; for Plant response rating, Flatsedge: scale 0 to 100 (0 no effect, 100 complete control)
Procedure, shortened: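 Each species was cultivated to 2 leaves in flooded paddy pots, then treated. After a greenhouse period of 12–14 days, the plants were scored visually relative to controls from 0 (no effect) to 100 (complete control).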

corn (Zea mays) [2] = experiment: Test B postemergence; conditions: 13 to 15 days
Procedure, shortened: (§1)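 Visual injury scores, 0 = no effect to 100 = complete control, assigned against controls after 13 to 15 days in the greenhouse. Compounds formulated in non-phytotoxic solvent plus surfactant and applied to soil after planting (pre) or onto foliage of 1- to 4-leaf plants (post).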

[3] = test system: blackgrass (Alopecurus myosuroides); experiment: Test B postemergence; conditions: 13 to 15 days
Procedure, shortened: as §1

[4] = test system: barnyardgrass (Echinochloa crus-galli); experiment: Test B postemergence; conditions: 13 to 15 days
Procedure, shortened: as §1

wild oat (Avena fatua) = experiment: Test B postemergence; conditions: 13 to 15 days
Procedure, shortened: as §1

[5] = test system: crabgrass (Digitaria sanguinalis); experiment: Test B postemergence; conditions: 13 to 15 days
Procedure, shortened: as §1

[6] = test system: morning glory (Ipomoea hederacea); experiment: Test B postemergence; conditions: 13 to 15 days
Procedure, shortened: as §1

[7] = test system: lambsquarters (Chenopodium album); experiment: Test B postemergence; conditions: 13 to 15 days
Procedure, shortened: as §1

[8] = test system: velvetleaf (Abutilon theophrasti); experiment: Test B postemergence; conditions: 13 to 15 days
Procedure, shortened: as §1

[9] = test system: cocklebur (Xanthium strumarium); experiment: Test B postemergence; conditions: 13 to 15 days
Procedure, shortened: as §1

[10] = test system: wheat (Triticum aestivum); experiment: Test B postemergence; conditions: 13 to 15 days
Procedure, shortened: as §1

[11] = test system: giant foxtail (Setaria faberii); experiment: Test B postemergence; conditions: 13 to 15 days
Procedure, shortened: as §1

[12] = test system: pigweed (Amaranthus retroflexus); experiment: Test B postemergence; conditions: 13 to 15 days
Procedure, shortened: as §1

[13] = test system: Surinam grass (Brachiaria decumbens); experiment: Test B postemergence; conditions: 13 to 15 days
Procedure, shortened: as §1

corn (Zea mays) [14] = experiment: Test B preemergence
Procedure, shortened: as §1

rice (Oryza saliva) = experiment: Test B preemergence
Procedure, shortened: as §1

[15] = test system: barnyardgrass (Echinochloa crus-galli); experiment: Test B preemergence
Procedure, shortened: as §1

[16] = test system: crabgrass (Digitaria sanguinalis); experiment: Test B preemergence
Procedure, shortened: as §1

[17] = test system: morning glory (Ipomoea hederacea); experiment: Test B preemergence
Procedure, shortened: as §1

[18] = test system: lambsquarters (Chenopodium album); experiment: Test B preemergence
Procedure, shortened: as §1

[19] = test system: velvetleaf (Abutilon theophrasti); experiment: Test B preemergence
Procedure, shortened: as §1

[20] = test system: cocklebur (Xanthium strumarium); experiment: Test B preemergence; conditions: scale 0 to 100, 0 no effect, 100 complete control
Procedure, shortened: as §1

[21] = test system: giant foxtail (Setaria faberii); experiment: Test B preemergence
Procedure, shortened: as §1

[22] = test system: pigweed (Amaranthus retroflexus); experiment: Test B preemergence
Procedure, shortened: as §1

[23] = test system: Surinam grass (Brachiaria decumbens); experiment: Test B preemergence
Procedure, shortened: as §1

[24] = flooded paddy test, Rate 62 g/ha
[25] = flooded paddy test, Rate 125 g/ha
[26] = Rate 125 g/ha, scale 0 (no effect) to 100 (complete control)
[27] = Rate 250 g/ha, scale 0 (no effect) to 100 (complete control)
[28] = Rate 500 g/ha, scale 0 to 100, 0 is no effect, 100 is complete control
[29] = Preemergence, Rate 500 g/ha, scale 0 to 100, 0 no effect, 100 complete control
[30] = preemergence, Rate 62 g/ha, scale of 0 to 100 where 0 is no effect and 100 is complete control, 13 to 15 days
[31] = preemergence, Rate 125 g/ha, scale 0 to 100, 0 no effect, 100 complete control
[32] = preemergence, Rate 250 g/ha, scale 0 to 100, 0 no effect, 100 complete control

Compound: CC1(C)CCc2cn(C3CCN(c4cccc(C(F)(F)F)c4)C3=O)nc21 (stereo not shown) [Compound 10]
- Flatsedge plant response rating ([1]; Rate 250 g/ha): 100
- Flatsedge plant response rating ([1]; Rate 500 g/ha): 100
- Plant response rating, Flatsedge [1, 24]: 50
- Plant response rating, Flatsedge [1, 25]: 80
- Plant response rating (scale 0 to 100), Flatsedge ([1]; flooded paddy test, Rate 16 g/ha, visually evaluated after 12 to 14 days, 0 = no effect, 100 = complete control): 30
- Plant response rating, Corn (corn (Zea mays) [2]; [26]): 0
- Plant response rating, Corn (corn (Zea mays) [2]; [27]): 0
- Plant response rating, Corn (corn (Zea mays) [2]; [28]): 0
- Plant response rating, Blackgrass [3, 26]: 0
- Plant response rating, Blackgrass [3, 27]: 0
- Plant response rating, Blackgrass [3, 28]: 0
- Plant response rating, Barnyardgrass [4, 26]: 0
- Plant response rating, Barnyardgrass [4, 27]: 0
- Plant response rating, Barnyardgrass [4, 28]: 0
- Plant response rating, Wild Oat (wild oat (Avena fatua); [26]): 0
- Plant response rating, Wild Oat (wild oat (Avena fatua); [27]): 0
- Plant response rating, Wild Oat (wild oat (Avena fatua); [28]): 0
- Plant response rating, Crabgrass [5, 26]: 0
- Plant response rating, Crabgrass [5, 27]: 0
- Plant response rating, Crabgrass [5, 28]: 0
- Plant response rating, Morningglory [6, 26]: 0
- Plant response rating, Morningglory [6, 27]: 0
- Plant response rating, Morningglory [6, 28]: 0
- Plant response rating, Lambsquarters [7, 26]: 0
- Plant response rating, Lambsquarters [7, 27]: 100
- Plant response rating, Lambsquarters [7, 28]: 0
- Plant response rating, Velvetleaf [8, 26]: 0
- Plant response rating, Velvetleaf [8, 27]: 0
- Plant response rating, Velvetleaf [8, 28]: 0
- Plant response rating, Cocklebur [9, 26]: 0
- Plant response rating, Cocklebur [9, 27]: 0
- Plant response rating, Cocklebur [9, 28]: 0
- Plant response rating, Wheat [10, 26]: 0
- Plant response rating, Wheat [10, 27]: 0
- Plant response rating, Wheat [10, 28]: 0
- Plant response rating, Foxtail, Giant [11, 26]: 0
- Plant response rating, Foxtail, Giant [11, 27]: 0
- Plant response rating, Foxtail, Giant [11, 28]: 0
- Plant response rating, Pigweed [12, 26]: 0
- Plant response rating, Pigweed [12, 27]: 0
- Plant response rating, Pigweed [12, 28]: 0
- Plant response rating, Surinam grass [13, 26]: 0
- Plant response rating, Surinam grass [13, 27]: 0
- Plant response rating, Surinam grass [13, 28]: 0
- Plant response rating, Corn (corn (Zea mays) [14]; [29]): 0
- Plant response rating, Corn (corn (Zea mays) [14]; [30]): 0
- Plant response rating, Corn (corn (Zea mays) [14]; [31]): 0
- Plant response rating, Corn (corn (Zea mays) [14]; [32]): 30
- Plant response rating, Rice (rice (Oryza saliva); [29]): 0
- Plant response rating, Rice (rice (Oryza saliva); [30]): 0
- Plant response rating, Rice (rice (Oryza saliva); [31]): 0
- Plant response rating, Rice (rice (Oryza saliva); [32]): 0
- Plant response rating, Barnyardgrass [15, 29]: 0
- Plant response rating, Barnyardgrass [15, 30]: 0
- Plant response rating, Barnyardgrass [15, 31]: 0
- Plant response rating, Barnyardgrass [15, 32]: 100
- Plant response rating, Crabgrass [16, 29]: 0
- Plant response rating, Crabgrass [16, 30]: 100
- Plant response rating, Crabgrass [16, 31]: 0
- Plant response rating, Crabgrass [16, 32]: 100
- Plant response rating, Morningglory [17, 29]: 0
- Plant response rating, Morningglory [17, 30]: 0
- Plant response rating, Morningglory [17, 31]: 0
- Plant response rating, Morningglory [17, 32]: 0
- Plant response rating, Lambsquarters [18, 29]: 0
- Plant response rating, Lambsquarters [18, 30]: 100
- Plant response rating, Lambsquarters [18, 31]: 0
- Plant response rating, Lambsquarters [18, 32]: 100
- Plant response rating, Velvetleaf [19, 29]: 0
- Plant response rating, Velvetleaf [19, 30]: 0
- Plant response rating, Velvetleaf [19, 31]: 0
- Plant response rating, Velvetleaf [19, 32]: 0
- Plant response rating, Cocklebur ([20]; Preemergence, Rate 500 g/ha): 0
- Plant response rating, Cocklebur ([20]; preemergence, Rate 125 g/ha): 0
- Plant response rating, Cocklebur ([20]; preemergence, Rate 250 g/ha): 0
- Plant response rating, Foxtail, Giant [21, 29]: 0
- Plant response rating, Foxtail, Giant [21, 30]: 80
- Plant response rating, Foxtail, Giant [21, 31]: 0
- Plant response rating, Foxtail, Giant [21, 32]: 100
- Plant response rating, Pigweed [22, 29]: 0
- Plant response rating, Pigweed [22, 30]: 90
- Plant response rating, Pigweed [22, 31]: 0
- Plant response rating, Pigweed [22, 32]: 100
- Plant response rating, Surinam grass [23, 29]: 0
- Plant response rating, Surinam grass [23, 30]: 20
- Plant response rating, Surinam grass [23, 31]: 0
- Plant response rating, Surinam grass [23, 32]: 30

Compound: CC1CCc2cn(C3CCN(c4cccc(C(F)(F)F)c4)C3=O)nc21 (stereo not shown) [Compound 11]
- Flatsedge plant response rating ([1]; Rate 250 g/ha): 90
- Flatsedge plant response rating ([1]; Rate 500 g/ha): 100
- Plant response rating, Flatsedge [1, 24]: 90
- Plant response rating, Flatsedge [1, 25]: 90
- Plant response rating, Corn (corn (Zea mays) [2]; [26]): 0
- Plant response rating, Corn (corn (Zea mays) [2]; [28]): 0
- Plant response rating, Blackgrass [3, 26]: 0
- Plant response rating, Blackgrass [3, 28]: 0
- Plant response rating, Barnyardgrass [4, 26]: 0
- Plant response rating, Barnyardgrass [4, 28]: 0
- Plant response rating, Wild Oat (wild oat (Avena fatua); [26]): 0
- Plant response rating, Wild Oat (wild oat (Avena fatua); [28]): 0
- Plant response rating, Crabgrass [5, 26]: 0
- Plant response rating, Crabgrass [5, 28]: 0
- Plant response rating, Morningglory [6, 26]: 0
- Plant response rating, Morningglory [6, 28]: 0
- Plant response rating, Lambsquarters [7, 26]: 0
- Plant response rating, Lambsquarters [7, 28]: 0
- Plant response rating, Velvetleaf [8, 26]: 0
- Plant response rating, Velvetleaf [8, 28]: 0
- Plant response rating, Cocklebur [9, 26]: 0
- Plant response rating, Cocklebur [9, 28]: 0
- Plant response rating, Wheat [10, 26]: 0
- Plant response rating, Wheat [10, 28]: 0
- Plant response rating, Foxtail, Giant [11, 26]: 0
- Plant response rating, Foxtail, Giant [11, 28]: 0
- Plant response rating, Pigweed [12, 26]: 0
- Plant response rating, Pigweed [12, 28]: 0
- Plant response rating, Surinam grass [13, 26]: 0
- Plant response rating, Surinam grass [13, 28]: 0
- Plant response rating, Corn (corn (Zea mays) [14]; [29]): 0
- Plant response rating, Corn (corn (Zea mays) [14]; [31]): 0
- Plant response rating, Rice (rice (Oryza saliva); [29]): 0
- Plant response rating, Rice (rice (Oryza saliva); [31]): 0
- Plant response rating, Barnyardgrass [15, 29]: 0
- Plant response rating, Barnyardgrass [15, 31]: 0
- Plant response rating, Crabgrass [16, 29]: 0
- Plant response rating, Crabgrass [16, 31]: 0
- Plant response rating, Morningglory [17, 29]: 0
- Plant response rating, Morningglory [17, 31]: 0
- Plant response rating, Lambsquarters [18, 29]: 0
- Plant response rating, Lambsquarters [18, 31]: 0
- Plant response rating, Velvetleaf [19, 29]: 0
- Plant response rating, Velvetleaf [19, 31]: 0
- Plant response rating, Cocklebur ([20]; Preemergence, Rate 500 g/ha): 0
- Plant response rating, Cocklebur ([20]; preemergence, Rate 125 g/ha): 0
- Plant response rating, Foxtail, Giant [21, 29]: 0
- Plant response rating, Foxtail, Giant [21, 31]: 0
- Plant response rating, Pigweed [22, 29]: 0
- Plant response rating, Pigweed [22, 31]: 0
- Plant response rating, Surinam grass [23, 29]: 0
- Plant response rating, Surinam grass [23, 31]: 0
